Where two headings read alike, the source gives them in different places.
Legend:
[1] = system: porcine aortic smooth muscle cells; test: inhibition of smooth muscle cell proliferation (3H thymidine, serum or PDGF stimulated); assay type: cell-based; settings: Sus scrofa, 24-36 h at 37° C.
Experimental: The ability of the compounds of the present invention to inhibit smooth muscle cell proliferation was established using isolated porcine aortic smooth muscle cells in a modification of the procedure of Castellot et al. J. Biol. Chem 257(19) 11256 (1982), as follows:
Fresh porcine aortas, scrupulously cleansed of fatty tissue, are rinsed in sterile phosphate-buffered saline with 2% antibiotic-antimycotic (100×) liquid (10,000 units of penicillin (base), 10,000 μg of streptomycin (base), and 25 μg of amphotericin B/mL utilizing penicillin G (sodium salt), streptomycin sulfate, and amphotericin B as Fungizone® in 0.85% saline, available from Gibco Laboratories, Grand Island Biological Co., Grand Island, N.Y.). The tissue is then digested in 10-15 mL of an enzyme solution containing collagenase type I, 165 U/mL; elastase type III, 15 U/mL; BSA, 2 mg/mL; and soybean trypsin inhibitor, 0.375 mg/mL, followed by incubation at 37° C. under 5% CO2 atmosphere for 10 to 15 minutes. After this treatment, the outer surface adventitia is removed by peeling with a forceps. The aorta is then longitudinally cut and laid open and the endothelial layer is removed by scraping.
The medial layer of cells is rinsed in the enzyme solution, and placed in a new 100 mm dish with 10 mL of enzyme solution. The medial layer of cells is minced using a fine pair of scissors and digested for 2-3 hours at 37° C. in 30 mL of fresh enzyme solution. After digestion, the medial tissue is homogenized using a sterile Pasteur pipette with a fire polished tip or an Eppendorf pipetter with a 200-1000 μL sterile pipette tip. The suspension is then centrifuged for 10 minutes at 8000 rpm and the pellet is suspended in 4-6 mL of fresh enzyme solution and plated onto 4-6 100 mm flasks with vented caps. The cells are then allowed to grow to confluence and split using 0.25% trypsin. The cells are evaluated for purity and overall quality using antibody to SMC actin.
The cells are assayed in early passage (generally passage 3-7) at sub-confluent conditions. Cultures are grown in 16 mm (24 well) multi-well culture dishes in media 199 supplemented with 10% fetal bovine serum and 2% antibiotic/antimycotic. At subconfluence, the cells are placed in a defined serum free, lymphocyte medium (AIM-V; Gibco) for 24-48 hours prior to initiating the experimental protocol.
The standard test procedure is initiated by addition of the test compound, ^3 H thymidine and serum or a specific growth factor to the serum deprived synchronized cells. Growth factor and serum stimulations are optimized for each cell type. The test compounds are added to each well at 50 fold dilution (20 μL/well) and the plates are incubated for 24-36 hours at 37° C. in 5% CO2 atmosphere. Test compounds are dissolved in 50% ethanol and assayed at 1, 10, and 100 μM. As a control, RG 50872 (Bilder, G. A.; et al., Am. J. Cell Physiol., 1991; 260: C721) is routinely assayed under the conditions of each cell preparation at a concentration of 5 μM.
At the completion of the experiment, the plates are placed on ice, washed three times with ice cold PBS and incubated in ice cold 10% trichloroacetic acid (TCA) for 30 minutes to remove acid soluble proteins. Each solution is transferred to a scintillation vial containing 0.4N HCl (500 μL/vial to neutralize NaOH) and each well is rinsed two times with water (500 μL) for a total volume of 2 mL/vial.
Data is quantitated by subjecting the vials to a scintillation counter, in triplicate, for both control and experimental samples. Control (100%) data is obtained from maximally stimulated cells, as the result of growth factor or serum stimulation. Experimental data is obtained from cells maximally stimulated with growth factor or serum and treated with a test compound. (The platelet-derived growth factor used in the assay was human recombinant PDGF-AB purchased from Upstate Biotechnology Inc., Lake Placid, N.Y.). Data is expressed as a percent of control from which IC50 s are determined.

[2] = cytotoxicity, modified MTT assay (% viable cells); assay type: cell-based, porcine; settings: pig, smooth muscle cells; fresh medium without serum, 24 h at 37° C.; no drug = 100% viable
Experimental: To distinguish cytotoxicity from the ability of a compound to prevent proliferation, the test compounds were examined using a commercial modification of the MTT assay. Briefly, cells were grown in 24 well plates to 70-80% confluency. The cells were serum deprived for 24-48 hours prior to initiation of the experimental protocol. To insure that the MTT assay monitored toxicity rather than proliferation, the cells were incubated with […] test compound in fresh medium without serum for 24 hours at 37° C. in a humidified CO2 incubator. Upon completion of the compound treatment, MTT indicator dye was added for 4 hours at 37° C. Cells were then solubilized and aliquots from each well were transferred to a 96-well plate for analysis. Absorbance at 570 nm wavelength with a reference wavelength of 630 nm was recorded using an ELISA plate reader. Results are reported as percent viable using no drug (100% viable) and pre-solubilization (0% viable) standards.

[3] = serum-stimulated, read-out: Porcine Smooth Muscle Cell Antiproliferation IC50 or % Inhibition at x Concentration, Serum
[4] = human recombinant PDGF-AB stimulated, read-out: Porcine Smooth Muscle Cell Antiproliferation IC50 or % Inhibition at x Concentration, PDGF

N#CC(=Cc1cccnc1)c1cccnc1 [Example 5, 2,3-Di-pyridin-3-yl-acrylonitrile]
IC50 [1, 3]: 96600 nM

N#CC(=Cc1ccccn1)c1cccnc1 [Example 4, 2-Pyridin-3-yl-3-pyridin-2-yl-acrylonitrile]
viability at 24 h [2]: 92%
IC50 [1, 3]: 48300 nM

N#CC(=Cc1ccc[nH]1)c1cccnc1 [Example 9, 2-(Pyridin-3-yl)-3-(1H-pyrrol-2-yl)-acrylonitrile]
viability at 24 h [2]: 84%
IC50 [1, 3]: 92000 nM

N#CC(=Cc1ccnc2ccccc12)c1cccnc1 [Example 2, 2-Pyridin-3-yl-3-quinolin-4-yl-acrylonitrile]
IC50 [1, 3]: 81000 nM

N#C/C(=C\c1ccncc1)c1cccnc1 [Example 1, Z-2-(Pyridin-3yl)-3-(pyridin-4-yl)-acrylonitrile]
viability at 24 h [2]: 100%
IC50 [1, 4]: 346 nM
IC50 [1, 3]: 1160 nM

N#C/C(=C\c1ccc2c(c1)OCCO2)c1c[nH]c2ncccc12 [Example 7, (Z)-3-(2,3-Dihydro-benzo[1,4]dioxin-6-yl)-2-(1H-pyrrolo-[2,3-b]pyridin-3-yl)-acrylonitrile]
viability at 24 h [2]: 100%
IC50 [1, 4]: 14800 nM
IC50 [1, 3]: 1230 nM

CCn1c2ccccc2c2cc(/C=C(\C#N)c3cccnc3)ccc21 [Example 8, (Z)-3-(9-Ethyl-9H-carbazol-3-yl)-2-(pyridin-3-yl) acrylonitrile]
viability at 24 h [2]: 100%
IC50 [1, 4]: 336 nM
IC50 [1, 3]: 355 nM

N#CC(=Cc1ccc2c(c1)OCCO2)c1cccnc1 [Example 3, 3-(2,3-Dihydro-benzo[1,4]dioxin-6-yl)-2-pyridin-3-yl-acrylonitrile]
viability at 24 h [2]: 86%
IC50 [1, 4]: 10500 nM
IC50 [1, 3]: 3800 to 11500 nM

N#CC(=Cc1c[nH]c2ncccc12)c1cccnc1 [Example 6, 2-(Pyridin-3-yl)-3-(1H-pyrrolo[2,3-b]pyridin-3-yl)-acrylonitrile]
viability at 24 h [2]: 100%
IC50 [1, 4]: 900 nM
IC50 [1, 3]: 1180 nM

— patent publication US5710164A, “Diheterocyclic styryl nitriles” (American Home Products Corporation, priority 1995, dated 1998)
